Data set [1] is described as follows: Water bath release rate testing of flumazenil implant. It is filed as physicochemical. The settings on record: based on water bath release rate testing. How it is done: The patient was then treated with a subcutaneous implant delivering an estimated 60-80 micrograms per hour of flumazenil (based on water bath release rate testing). The implant was expected to last 8-10 weeks. This prevented the migraines for about 9-10weeks. In the week before the implant was inserted, the patient's blood flumazenil level was noted to be 0.5 ng/ml. The usual expected level for 160 microgram an hour infusions was in the order of 2-3 ng per ml and 1-1.5 ng for 80 microgram per hour infusions.

For data set [2], the system named is any dependency. The data set can be described thus: Detoxification from any dependency, 108 patients followed. It is filed as in vivo, human.
Data set [3] relates to PTSD. The data set can be described thus: PTSD patients treated with flumazenil and/or naltrexone. It is filed as in vivo, human. The settings on record: infusions and implants. From the text: Post Trauma Stress Disorder (PTSD), causes dysregulation of anxiety control that may damage the GABAA system and present as hypervigilance, sleep disturbance, anxiety, gastrointestinal (GIT) or bladder symptoms. We have been using flumazenil for more than 8 years to treat patients presenting complex. The infusions and implants give relief to the anxiety, sleep disturbance and the GIT symptoms as well as urinary symptoms in many well established PTSD patients.
Sleep remained normal following this. The profound recovery of sleep in patients with PTSD using flumazenil and naltrexone by continuous delivery has not previously been described.

Data set [4] is described as follows: Swelling at the site of subcutaneous injection of flumazenil solution. It is filed as in vivo, human. The settings on record: 16 mg per 30 ml solution, 4 mg in 7.5 ml a day versus standard ampoules 4 mg in 40 ml. As for the experimental part:
In our experience, this is the first flumazenil solution prepared for subcutaneous delivery making it possible to deliver 4 mg of flumazenil in a volume of just 7.5 ml per day. Clinically, this is preferred to the standard flumazenil preparations, which involve injecting 4 mg in 40 ml per day. For example, the lower volume results in less swelling at the site of injection.
During our development of flumazenil ampoules we have found the preferred pH is about 4±1. In addition, the volume and dilution of flumazenil is preferably 16 mg per 30 ml. In our experience this was the first flumazenil made for subcutaneous delivery, and therefore, a dose of flumazenil at 4 mg can be administered in a volume of only 7.5 ml a day. Clinically, this is more convenient than the standard flumazenil ampoules which involve injecting 4 mg in a volume of 40 ml. […] In addition, the packaging of a dose of flumazenil of 16 mg in 30 ml enables clinical staff to use one ampoule for 4 days at 4 mg a day and one ampoule for 8 days at doses of 2 mg per day.

Data set [5] relates to migraine patients. In words: Two migraine patients, follow-up during and after flumazenil delivery. It is filed as in vivo, human. As for the experimental part: Two migraine patients initially described migraine symptoms, are both symptom free for more than a year. No repeat treatments occurred in the second of the migraine patients, and as such, believe that the treatment might be curative in some patients.
In these two patients treated for migraines, the first patient the history of migraines affecting their required an infusion initially, and then flumazenil implants maintaining at least 1 ng per ml of flumazenil to achieve relief of symptoms. In a second patient we noted that the symptom relief has lasted for more than 12 months when treatment with a flumazenil implant lasting an estimated six months occurred.

Data set [6] has as its system craving for nicotine. The data set can be described thus: Nicotine craving and use in patients. It is filed as in vivo, human. As to conditions: flumazenil by infusion or nasally/sublingually 50 to 200 micrograms per dose.
Data set [7] has as its system amphetamine use. In words: Amphetamine / methamphetamine craving and withdrawal. It is filed as in vivo, human. The settings on record: methamphetamine patients, flumazenil infusions at 160 μg/hour. As for the experimental part:
In those patients that return 2-3 weeks with extreme anxiety and a desire to return to amphetamine use, the commencement of flumazenil infusions followed by a flumazenil implant that sustains a plasma concentration of flumazenil at 0.5-2 ng/ml or more decreases the cravings, including a decrease in the desire for amphetamines and allows reduction f irritability and aggression.

The subject of data set [8] is psychosis. In words: Drug or anxiety induced episodes of psychosis at detoxification. It is filed as in vivo, human. The settings on record: patients with history of psychosis after ceasing cannabis, amphetamines and alcohol; sustained delivery.
Data set [9] has as its system cannabis withdrawal. In words: Withdrawal from cannabis with high THC concentrations. It is filed as in vivo, human. As to conditions: flumazenil 160 μg/hour. From the text:
Cannabis use has changed in recent years with a significant cohort describing high tetrahydrocannabinol (THC) concentrations in potent strains which are cultivated for their high THC content. In the patient group using these high concentrations of THC, we have noted that a group of patients give a clear cut history of extreme nausea, vomiting, anxiety changing to serious paranoid thoughts and delusions followed by psychosis over the first 3-5 days of ceasing drug use.
In a severe patient population, ondansetron may be given every 6-8 hours to assist in reducing the nausea and associated anxiety symptoms.
Our results indicated a clear reduction in anxiety, and paranoid symptoms, allowing patients who otherwise would be unable to cope with the symptoms, to cease cannabis use.

Entries after “also recorded” stand apart in the source; their conditions may differ.

`CCOC(=O)c1ncn2c1CN(C)C(=O)c1cc(F)ccc1-2` [flumazenil]: the “estimated delivery rate of flumazenil from subcutaneous implant” value in [1] was 60-80 micrograms per hour. In [2], the “daily use of alcohol, smoking, cannabis, amphetamines, opioids and other drug use” value is recorded as “reduction in daily use”. The “PTSD symptoms (anxiety, sleep disturbance, GIT and urinary symptoms)” value in data set [3] was “give relief; also recorded: significant improvement”. For the same compound, the “swelling of the tissues at the site of injection” value in data set [4] is on record as “less swelling”. Moreover, the “flumazenil level maintained by implants to achieve relief of symptoms” value in data set [5] (first migraine patient, infusion initially then implants) is listed as “at least 1 ng per ml”. For the same compound, the “duration of symptom relief” value in data set [5] (second patient, flumazenil implant lasting an estimated six months, no repeat treatment) is “more than 12 months”. Further, the symptom free period result in data set [5] (two migraine patients) is recorded as “more than a year”. The “craving for and use of nicotine” value in data set [6] was “reduced craving and use”. For the same compound, in data set [7], the “severe withdrawal symptoms including psychosis or extreme anxiety” value was “prevent these symptoms”. For the same compound, the “onset of psychosis with detoxification” value in data set [8] is given as “prevents the onset of psychosis”. The “nausea, vomiting, anxiety, paranoid thoughts, delusions, psychosis on ceasing high-THC cannabis” value in [9] is given as “controls or reduces the presence of these symptoms”.

These data come from US20220152044A1, “TREATMENT OF INFLAMMATORY DISEASES OF THE CENTRAL NERVOUS SYSTEM” (PALMAYA PTY LTD, priority 2019, published 2022).
